Source: the NIST ThermoML archive (doi:10.1016/j.jct.2007.09.010)

Assays:
[1] = refractive index (other wavelength) (dimensionless); conditions: 101.32 kPa, Liquid, Wavelength=632.8 nm, Standard Abbe refractometry
[2] = refractive index (other wavelength) (dimensionless); xn = mol fraction of the nth substance listed; conditions: 293.6 K, 101.32 kPa, Liquid, Wavelength=632.8 nm

N#Cc1ccccc1 [benzonitrile]
[1]
Conditions	refractive index
283.93 K	1.5294
285.77 K	1.5285
287.73 K	1.5276
289.74 K	1.5266
291.66 K	1.5256
293.65 K	1.5247

N#Cc1ccccc1 [benzonitrile] + CCCCCCCCCCCC
[2]
Conditions	refractive index
x1 = 0.0994	1.4247
x1 = 0.195	1.4302
x1 = 0.2945	1.436
x1 = 0.3954	1.4434
x1 = 0.4923	1.4507
x1 = 0.5859	1.4608
x1 = 0.6782	1.4711
x1 = 0.768	1.4832
x1 = 0.8871	1.5022

CCCCCCCCCCCC [dodecane]
[1]
Conditions	refractive index
282.19 K	1.4249
284.24 K	1.424
286.06 K	1.4233
288.08 K	1.4225
289.91 K	1.4217
291.91 K	1.4207
293.94 K	1.4199
